Laboratory results published in article PMC10208593 (Journal of molecular structure, 2023).
Entries after “also recorded” stand apart in the source; their conditions may differ. Where two headings read alike, the source gives them in different places.

Key:
Huh7 [1] = assay: SRB cytotoxicity assay, Huh7; format: cell-based; settings: Homo sapiens
MCF-7 = assay: SRB cytotoxicity assay, MCF-7; format: cell-based; settings: Homo sapiens, MCF7, 72 h, read-out: IC50 (μM) ± S.D. MCF-7
HCT116 = assay: SRB cytotoxicity assay, HCT116; format: cell-based; settings: Homo sapiens, HCT-116, 72 h, read-out: IC50 (μM) ± S.D. HCT116
HepG2 = assay: SRB cytotoxicity assay, HepG2; format: cell-based; settings: Homo sapiens, HepG2, read-out: IC50 (μM) ± S.D. HepG2
Mahlavu [2] = assay: SRB cytotoxicity assay, Mahlavu; format: cell-based; settings: Homo sapiens, read-out: IC50 (μM) ± S.D. Mahlavu
SNU475 = assay: SRB cytotoxicity assay, SNU475; format: cell-based; settings: Homo sapiens, SNU-475, read-out: IC50 (μM) ± S.D. SNU475
[3] = molecular target: tubulin obtained from bovine brains (Bos taurus, UniProt P81947+Q6B856); assay: Inhibition of [3H]colchicine binding to tubulin; settings: for Colchicine binding % inhibition ± SD, 50 μM: 50 μM compound, tubulin 1 μM, [3H]colchicine 5 μM; for inhibition at 50 µM: read-out: Colchicine binding % inhibition ± SD, 50 μM
Sequence of tubulin obtained from bovine brains (Q6B856 whole entry): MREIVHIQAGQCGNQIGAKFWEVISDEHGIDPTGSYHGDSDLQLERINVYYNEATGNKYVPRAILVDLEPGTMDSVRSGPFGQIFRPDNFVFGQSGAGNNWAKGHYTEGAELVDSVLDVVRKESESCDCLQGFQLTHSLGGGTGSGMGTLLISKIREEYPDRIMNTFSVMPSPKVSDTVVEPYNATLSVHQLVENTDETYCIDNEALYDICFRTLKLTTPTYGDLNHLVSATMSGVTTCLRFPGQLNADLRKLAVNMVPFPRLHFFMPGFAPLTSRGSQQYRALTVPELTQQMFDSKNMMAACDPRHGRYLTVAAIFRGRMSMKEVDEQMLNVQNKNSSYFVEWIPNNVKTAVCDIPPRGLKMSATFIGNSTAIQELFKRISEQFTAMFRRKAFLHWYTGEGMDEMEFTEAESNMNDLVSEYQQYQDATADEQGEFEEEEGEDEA
Sequence of tubulin obtained from bovine brains (P81947 whole entry): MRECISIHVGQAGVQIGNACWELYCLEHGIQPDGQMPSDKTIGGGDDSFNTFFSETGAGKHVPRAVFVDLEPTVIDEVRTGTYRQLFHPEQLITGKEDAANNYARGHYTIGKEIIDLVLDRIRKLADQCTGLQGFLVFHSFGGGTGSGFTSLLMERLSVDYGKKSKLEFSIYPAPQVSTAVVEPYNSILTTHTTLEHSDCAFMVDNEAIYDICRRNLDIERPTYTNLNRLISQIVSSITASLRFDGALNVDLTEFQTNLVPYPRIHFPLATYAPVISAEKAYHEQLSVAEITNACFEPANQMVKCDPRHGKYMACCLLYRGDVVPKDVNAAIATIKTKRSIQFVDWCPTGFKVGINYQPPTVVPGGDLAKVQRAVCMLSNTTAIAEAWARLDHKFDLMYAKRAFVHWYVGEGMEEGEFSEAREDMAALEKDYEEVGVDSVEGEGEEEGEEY

Mahlavu [4] = assay: Real-time cell monitoring; format: cell-based, human; settings: RT-CES, increasing concentrations, 72 h, vs DMSO control
Huh7 [5] = assay: Flow cytometry cell cycle analysis, Huh7; format: cell-based, human; settings: propidium iodide; for cell cycle phase arrest, Huh7: 72 h at IC50 concentration; for cell cycle phase arrest, Huh7, higher concentration: 72 h at 10 μM
[6] = test system: Huh7, HepG2, Mahlavu and SNU475 cells; assay: Detection of apoptosis by Hoechst 33258 staining; format: cell-based, human; settings: 48 h, IC100 concentrations, all four HCC lines
Mahlavu [7] = assay: Flow cytometry cell cycle analysis, Mahlavu; format: cell-based, human; settings: propidium iodide; for cell cycle phase arrest, Mahlavu, higher concentration: 72 h at 10 μM; for cell cycle phase arrest, Mahlavu: 72 h at IC50 concentration
six cancer cell lines = assay: SRB assay, six cancer cell lines taken together; format: cell-based; settings: Homo sapiens, read-out: IC50 range against the six cancer cell lines examined
[8] = Huh-7, 72 h, read-out: IC50 (μM) ± S.D. Huh7
[9] = Huh-7, read-out: IC50 (μM) ± S.D. Huh7 (HCC cell lines)

For COc1cc(NC(=O)c2cc(-c3c[nH]c4ccccc34)n[nH]2)cc(OC)c1OC [Compound 10, 3-(1H-Indol-3-yl)-N-(3,4,5-trimethoxyphenyl)-1H-pyrazole-5-carboxamide], the IC50 (Huh7 [1]; [8]) was 1 ± 0.2 µM, the IC50 (Huh7 [1]; [9]) was 1 ± 0.2 µM and the IC50 (MCF-7) was 2.1 ± 0.1 µM. For the same compound, the IC50 (HCT116) was 2.5 ± 0.3 µM, the IC50 (HepG2) was 2.9 ± 0.1 µM and the IC50 (Mahlavu [2]) was 2.7 ± 0.4 µM. The IC50 (SNU475) was 4.1 ± 2.1 µM, the “Colchicine binding % inhibition ± SD, 50 μM” value [3] was “Inhibition was observed” and the inhibition at 50 µM [3] was 26 ± 7%. The “real-time cell growth (cell index) inhibition, Mahlavu” value (Mahlavu [4]) was “noticeable inhibition in cell growth in 6 μM concentration”, the “cell cycle phase arrest, Huh7” value (Huh7 [5]) was “arrest in the G0/G1 phase” and the “apoptotic nuclear morphology (Hoechst staining)” value (“apoptotic nuclear morphology” below) [6] was “visible nuclear blebs or deformed nuclei”.
CC(C)(C)c1ccc(NC(=O)c2cc(-c3c[nH]c4ccccc34)n[nH]2)cc1 [Compound 11, N-(4-(tert-Butyl)phenyl)-3-(1H-indol-3-yl)-1H-pyrazole-5-carboxamide] was tested, and the IC50 (Huh7 [1]; [8]) was 0.6 ± 0.4 µM, the IC50 (Huh7 [1]; [9]) was 0.6 ± 0.4 µM and the IC50 (MCF-7) was 1 ± 0.1 µM. For the same compound, the IC50 (HCT116) was 1.2 ± 0.5 µM, the IC50 (HepG2) was 2.7 ± 0.9 µM and the IC50 (Mahlavu [2]) was 3.4 ± 0.8 µM. The IC50 (SNU475) was 4.3 ± 0.9 µM, the inhibition at 50 µM [3] was 9.4 ± 2% and the “real-time cell growth (cell index) inhibition, Mahlavu” value (Mahlavu [4]) was “dose-dependent growth inhibition”. The “cell cycle phase arrest, Huh7, higher concentration” value (Huh7 [5]) was “arrest in the S phase”, the “cell cycle phase arrest, Huh7” value (Huh7 [5]) was “did not cause a significant change” and the “cell cycle phase arrest, Mahlavu, higher concentration” value (Mahlavu [7]) was “arrest in the S phase”. The “cell cycle phase arrest, Mahlavu” value (Mahlavu [7]) was “arrest in the S phase” and the “apoptotic nuclear morphology” value [6] was “visible nuclear blebs or deformed nuclei”.
With CSc1ccc(NC(=O)c2cc(-c3c[nH]c4ccccc34)n[nH]2)cc1 [Compound 12, 3-(1H-Indol-3-yl)-N-(4-(methylthio)phenyl)-1H-pyrazole-5-carboxamide] the IC50 (Huh7 [1]; [8]) was 6.3 ± 1.6 µM, the IC50 (MCF-7) was 2 ± 0.2 µM and the IC50 (HCT116) was 9 ± 1.9 µM.
In the case of COc1cc(CNC(=O)c2cc(-c3c[nH]c4ccccc34)n[nH]2)cc(OC)c1OC [Compound 13, 3-(1H-Indol-3-yl)-N-(3,4,5-trimethoxybenzyl)-1H-pyrazole-5-carboxamide], the IC50 (Huh7 [1]; [8]) is reported as 17.2 ± 2.1 µM, the IC50 (MCF-7) is reported as 17.9 ± 1 µM and the IC50 (HCT116) is reported as 31 ± 2.4 µM.
For O=C(Nc1ccccc1)c1cc(-c2c[nH]c3ccccc23)n[nH]1 [Compound 14, 3-(1H-Indol-3-yl)-N-phenyl-1H-pyrazole-5-carboxamide], the IC50 (Huh7 [1]; [8]) was 16.8 ± 3.8 µM, the IC50 (MCF-7) was 22.2 ± 1.8 µM and the IC50 (HCT116) was > 50 µM.
Work on COc1ccc(NC(=O)c2cc(-c3c[nH]c4ccccc34)n[nH]2)cc1 [Compound 15, 3-(1H-Indol-3-yl)-N-(4-methoxyphenyl)-1H-pyrazole-5-carboxamide] yielded an IC50 (Huh7 [1]; [8]) of 8.6 ± 2.1 µM, an IC50 (MCF-7) of 5.5 ± 0.5 µM and an IC50 (HCT116) of 11.9 ± 1 µM.
COc1cc(NC(=O)c2cc(-c3c[nH]c4ccccc34)n[nH]2)cc(OC)c1 [Compound 16, N-(3,5-Dimethoxyphenyl)-3-(1H-indol-3-yl)-1H-pyrazole-5-carboxamide] was tested, and the IC50 (Huh7 [1]; [8]) was 4.5 ± 0.1 µM, the IC50 (MCF-7) was 2.6 ± 0.5 µM and the IC50 (HCT116) was 6.2 ± 1 µM.
COc1ccc(NC(=O)c2cc(-c3c[nH]c4ccccc34)n[nH]2)cc1OC [Compound 17, N-(3,4-Dimethoxyphenyl)-3-(1H-indol-3-yl)-1H-pyrazole-5-carboxamide] was tested, and the IC50 (Huh7 [1]; [8]) was 2.8 ± 1.2 µM, the IC50 (MCF-7) was 1.7 ± 0.4 µM and the IC50 (HCT116) was 10.1 ± 0.7 µM.
COc1ccc(OC)c(NC(=O)c2cc(-c3c[nH]c4ccccc34)n[nH]2)c1 [Compound 18, N-(2,5-Dimethoxyphenyl)-3-(1H-indol-3-yl)-1H-pyrazole-5-carboxamide] showed an IC50 (Huh7 [1]; [8]) of 0.6 ± 0.1 µM, an IC50 (Huh7 [1]; [9]) of 0.6 ± 0.2 µM and an IC50 (MCF-7) of 3.6 ± 0.4 µM. For the same compound, the IC50 (HCT116) was 1.4 ± 0.5 µM, the IC50 (HepG2) was 1.3 ± 0.09 µM and the IC50 (Mahlavu [2]) was 2.9 ± 0.8 µM. The IC50 (SNU475) was 2.9 ± 1.13 µM, the “Colchicine binding % inhibition ± SD, 50 μM” value [3] was “Inhibition was observed” and the inhibition at 50 µM [3] was 23 ± 3%. For the same compound, the IC50 (six cancer cell lines) was 0.6 to 3.6 µM, the “cell cycle phase arrest, Huh7, higher concentration” value (Huh7 [5]) was “cell cycle arrest in the G2/M phase; also recorded: cell cycle arrest at the G2/M phase” and the “cell cycle phase arrest, Huh7” value (Huh7 [5]) was “did not cause a significant change”. For the same compound, the “cell cycle phase arrest, Mahlavu, higher concentration” value (Mahlavu [7]) was “cell cycle arrest in the G2/M phase; also recorded: cell cycle arrest at the G2/M phase”, the “cell cycle phase arrest, Mahlavu” value (Mahlavu [7]) was “arrest in the G2/M phase” and the “apoptotic nuclear morphology” value [6] was “visible nuclear blebs or deformed nuclei; also recorded: induced apoptotic cell death”.
With O=C(c1cc(-c2c[nH]c3ccccc23)n[nH]1)N1CCCCC1 [Compound 19, (3-(1H-Indol-3-yl)-1H-pyrazol-5-yl)(piperidin-1-yl)methanone] the IC50 (Huh7 [1]; [8]) was 19.1 ± 1.8 µM, the IC50 (MCF-7) was 21.7 ± 2 µM and the IC50 (HCT116) was 23 ± 3.5 µM.
In the case of O=C(c1cc(-c2c[nH]c3ccccc23)n[nH]1)N1CCOCC1 [Compound 20, (3-(1H-Indol-3-yl)-1H-pyrazol-5-yl)(morpholino)methanone], the IC50 (Huh7 [1]; [8]) is reported as > 50 µM, the IC50 (MCF-7) is reported as > 50 µM and the IC50 (HCT116) is reported as > 50 µM.
In the case of CCCCNC(=O)c1cc(-c2c[nH]c3ccccc23)n[nH]1 [Compound 21, N-Butyl-3-(1H-indol-3-yl)-1H-pyrazole-5-carboxamide], the IC50 (Huh7 [1]; [8]) is reported as > 50 µM, the IC50 (MCF-7) is reported as 26.7 ± 0.5 µM and the IC50 (HCT116) is reported as 23.1 ± 5.1 µM.
O=C(Nc1ccc(Cl)cc1)c1cc(-c2c[nH]c3ccccc23)n[nH]1 [Compound 22, N-(4-Chlorophenyl)-3-(1H-indol-3-yl)-1H-pyrazole-5-carboxamide] was tested, and the IC50 (Huh7 [1]; [8]) was > 50 µM, the IC50 (MCF-7) was 29.8 ± 3.1 µM and the IC50 (HCT116) was > 50 µM.
For O=C(Nc1ccc(Br)cc1)c1cc(-c2c[nH]c3ccccc23)n[nH]1 [Compound 23, N-(4-Bromophenyl)-3-(1H-indol-3-yl)-1H-pyrazole-5-carboxamide], the IC50 (Huh7 [1]; [8]) was > 50 µM, the IC50 (MCF-7) was 39.3 ± 1 µM and the IC50 (HCT116) was > 50 µM.
O=C(NCc1ccncc1)c1cc(-c2c[nH]c3ccccc23)n[nH]1 [Compound 24, 3-(1H-Indol-3-yl)-N-(pyridin-4-ylmethyl)-1H-pyrazole-5-carboxamide] showed an IC50 (Huh7 [1]; [8]) of 30.4 ± 1.4 µM, an IC50 (MCF-7) of 31.2 ± 2.6 µM and an IC50 (HCT116) of 33.2 ± 1 µM.
Compound O=C(NCc1cccnc1)c1cc(-c2c[nH]c3ccccc23)n[nH]1 [Compound 25, 3-(1H-Indol-3-yl)-N-(pyridin-3-ylmethyl)-1H-pyrazole-5-carboxamide] has an IC50 (Huh7 [1]; [8]) of 29.1 ± 1 µM, an IC50 (MCF-7) of 36.5 ± 4 µM and an IC50 (HCT116) of 26.8 ± 2.1 µM.
In the case of O=C(NCc1ccccn1)c1cc(-c2c[nH]c3ccccc23)n[nH]1 [Compound 26, 3-(1H-Indol-3-yl)-N-(pyridin-2-ylmethyl)-1H-pyrazole-5-carboxamide], the IC50 (Huh7 [1]; [8]) is reported as 35.4 ± 1.8 µM, the IC50 (MCF-7) is reported as > 50 µM and the IC50 (HCT116) is reported as 34 ± 1.1 µM.
O=C(NC1CCN(Cc2ccccc2)CC1)c1cc(-c2c[nH]c3ccccc23)n[nH]1 [Compound 27, N-(1-Benzylpiperidin-4-yl)-3-(1H-indol-3-yl)-1H-pyrazole-5-carboxamide] gave an IC50 (Huh7 [1]; [8]) of 6.8 ± 0.7 µM, an IC50 (MCF-7) of 8.6 ± 0.2 µM and an IC50 (HCT116) of 8.9 ± 0.7 µM.
O=C(c1cc(-c2c[nH]c3ccccc23)n[nH]1)N1CCN(c2ccc(C(F)(F)F)cc2)CC1 [Compound 28, (3-(1H-Indol-3-yl)-1H-pyrazol-5-yl)(4-(4-(trifluoromethyl)phenyl)piperazin-1yl)methanone] showed an IC50 (Huh7 [1]; [8]) of 16.2 ± 3.2 µM, an IC50 (MCF-7) of 16.1 ± 1.7 µM and an IC50 (HCT116) of 27.6 ± 2.4 µM.
In the case of O=C(c1cc(-c2c[nH]c3ccccc23)n[nH]1)N1CCN(Cc2ccc(C(F)(F)F)cc2)CC1 [Compound 29, (3-(1H-Indol-3-yl)-1H-pyrazol-5-yl)(4-(4-(trifluoromethyl)benzyl)piperazin-1-yl)methanone], the IC50 (Huh7 [1]; [8]) is reported as 1.7 ± 1.8 µM, the IC50 (MCF-7) is reported as 3 ± 0.8 µM and the IC50 (HCT116) is reported as 4.1 ± 2 µM.
CNC(=O)c1cc(Oc2ccc(NC(=O)Nc3ccc(Cl)c(C(F)(F)F)c3)cc2)ccn1 [Sorafenib, sorafenib, reference compound] showed an IC50 (Huh7 [1]; [8]) of 6.5 ± 0.7 µM, an IC50 (Huh7 [1]; [9]) of 6.5 ± 0.7 µM and an IC50 (MCF-7) of 13.8 ± 1.2 µM. For the same compound, the IC50 (HCT116) was 12 ± 0.6 µM, the IC50 (HepG2) was 4.4 ± 0.8 µM and the IC50 (Mahlavu [2]) was 8.3 ± 1 µM. For the same compound, the IC50 (SNU475) was 9.6 ± 0.5 µM.
